According to ChEMBL document CHEMBL4819136, “Design and synthesis of garlic-related unsymmetrical thiosulfonates as potential Alzheimer's disease therapeutics: In vitro and in silico study” (Bioorg Med Chem, 2021):

What was measured:
Acetylcholinesterase [1] = target: T1, Acetylcholinesterase (Homo sapiens, UniProt P22303)
Description: Inhibition of human recombinant AChE using acetylthiocholine iodide as substrate preincubated with enzyme for 10 mins followed by substrate addition and measured by Ellman's method

Cholinesterase = Cholinesterase (Homo sapiens, UniProt P06276); assay: Inhibition of human serum BuChE using butyrylthiocholine iodide as substrate preincubated with enzyme for 10 mins followed by substrate addition and measured by Ellman's method; assay type: cell-free
Acetylcholinesterase [2] = target: T1, Acetylcholinesterase; assay: Potency index, ratio of rivastigmine IC50 to test compound IC50 for human recombinant AChE using acetylthiocholine iodide as substrate preincubated with enzyme for 10 mins followed by substrate addition and measured by Ellman's method

T1 sequence (P22303 whole entry): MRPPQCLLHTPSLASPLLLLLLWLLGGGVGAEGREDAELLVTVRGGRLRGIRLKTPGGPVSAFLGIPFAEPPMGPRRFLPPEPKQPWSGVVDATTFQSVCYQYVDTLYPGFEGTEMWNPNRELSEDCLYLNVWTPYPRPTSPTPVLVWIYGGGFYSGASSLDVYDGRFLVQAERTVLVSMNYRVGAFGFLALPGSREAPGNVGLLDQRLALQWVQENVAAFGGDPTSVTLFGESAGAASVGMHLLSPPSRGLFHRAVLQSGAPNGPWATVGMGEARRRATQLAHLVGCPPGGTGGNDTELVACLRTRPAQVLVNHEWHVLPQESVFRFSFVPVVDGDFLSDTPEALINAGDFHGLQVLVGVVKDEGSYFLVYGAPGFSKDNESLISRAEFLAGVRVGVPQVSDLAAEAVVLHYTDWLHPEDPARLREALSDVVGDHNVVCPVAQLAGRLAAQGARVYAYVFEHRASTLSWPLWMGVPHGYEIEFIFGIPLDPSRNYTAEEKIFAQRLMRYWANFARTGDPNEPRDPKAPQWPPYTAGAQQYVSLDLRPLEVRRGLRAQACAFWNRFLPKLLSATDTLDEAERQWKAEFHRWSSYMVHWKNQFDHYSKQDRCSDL
Chain of Cholinesterase (P06276 whole entry): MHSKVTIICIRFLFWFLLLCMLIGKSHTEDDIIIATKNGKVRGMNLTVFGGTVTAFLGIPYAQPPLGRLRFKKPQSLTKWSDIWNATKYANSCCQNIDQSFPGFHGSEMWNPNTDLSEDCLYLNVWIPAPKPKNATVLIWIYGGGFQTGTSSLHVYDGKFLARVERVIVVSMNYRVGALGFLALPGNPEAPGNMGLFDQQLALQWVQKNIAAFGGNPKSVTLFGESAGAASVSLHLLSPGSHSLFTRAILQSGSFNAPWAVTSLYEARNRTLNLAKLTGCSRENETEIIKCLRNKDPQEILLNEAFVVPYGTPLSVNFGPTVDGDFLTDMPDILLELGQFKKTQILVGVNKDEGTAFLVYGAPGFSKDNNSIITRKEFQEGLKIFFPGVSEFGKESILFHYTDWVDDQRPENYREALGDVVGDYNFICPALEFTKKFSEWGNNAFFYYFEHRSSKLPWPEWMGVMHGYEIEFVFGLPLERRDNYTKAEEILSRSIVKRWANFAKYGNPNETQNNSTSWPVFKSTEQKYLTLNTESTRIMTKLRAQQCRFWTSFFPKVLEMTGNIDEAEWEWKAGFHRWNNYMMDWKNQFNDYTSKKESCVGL

| SMILES | IC50 (Acetylcholinesterase [1]) | Ki (Acetylcholinesterase [1]) | IC50 (Cholinesterase) | Ki (Cholinesterase) | Ratio IC50 (Acetylcholinesterase [2]) |
| --- | --- | --- | --- | --- | --- |
| Cc1ccc(S(=O)(=O)SCc2ccc(C#N)cc2)cc1 | 196 nM | 166 nM | 203 nM | 201 nM | – |
| Cc1ccc(S(=O)(=O)SCc2ccccc2)cc1 | 517 nM | 390 nM | 318 nM | 218 nM | – |
| COc1ccc(CSS(=O)(=O)c2ccc(C)cc2)cc1 | 488 nM | 219 nM | 202 nM | 251 nM | – |
| Cc1ccc(S(=O)(=O)SCc2ccc(OC(F)(F)F)cc2)cc1 | 129 nM | 198 nM | 53.3 nM | 17.5 nM | – |
| Cc1ccc(S(=O)(=O)SCc2ccc(C(C)C)cc2)cc1 | 11.9 nM | 25.6 nM | 84.5 nM | 37.9 nM | 5 |
| Cc1ccc(S(=O)(=O)SCc2ccc(C(F)(F)F)cc2)cc1 | 86.6 nM | 148 nM | 118 nM | 103 nM | – |
| Cc1ccc(S(=O)(=O)SCc2ccc(Cl)cc2)cc1 | 478 nM | 714 nM | 315 nM | 199 nM | – |
| Cc1ccc(S(=O)(=O)SCc2ccc([N+](=O)[O-])cc2)cc1 | 212 nM | 251 nM | 214 nM | 303 nM | – |
| Cc1ccc(S(=O)(=O)SCc2ccc(F)cc2)cc1 | 313 nM | 327 nM | 303 nM | 208 nM | – |
